Reference: US7109197B2, “N-phenyl-4-(4-pyridyl)-2-pyrimidineamine derivatives” (Syngenta Crop Protection, Inc., priority 2000, dated 2006)
Where two headings read alike, the source gives them in different places.

Tests used:
Botrytis cinerea [1] = assay: Assay B-8: Effect against Botrytis cinerea/tomato (Botrytis on tomatoes); type: in vivo; details: Botrytis cinerea on tomato cv. Roter Gnom; 0.02% active substance, spray
Protocol: Assay B-8: Effect Against Botrytis cinerea/Tomato (Botrytis on Tomatoes) 4 week old tomato plants cv. Roter Gnom are treated with the formulated testcompound 0.02% active substance) in a spray chamber. Two days after application tomato plants are inoculated by spraying a spore suspension (1×10^5 conidia/ml) on the test plants. After an incubation period of 4 days at 20° C. and 95% r. h. in a greenhouse the disease incidence is assessed.

Septoria nodorum = assay: Assay B-12: Effect against Septoria nodorum/wheat (Septoria leaf spot on wheat); type: in vivo; details: Septoria nodorum on wheat cv. Arina, 0.02% active substance, spray
[2] = system: Pyrenophora teres (Helminthosporium); assay: Assay B-10: Effect against Pyrenophora teres (Helminthosporium)/barley (net blotch on barley); type: in vivo; details: Pyrenophora teres on barley cv. Regina, 0.02% active substance, spray
How it was run: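 One-week-old barley cv. Regina sprayed with formulated compound at 0.02% active substance, then inoculated 2 days later with 3×10^4 conidia/ml. Held 2 days at 20° C/95% r.h., then 2 days at 20° C/60% r.h.; disease incidence scored 4 days after inoculation.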

Fusarium culmorum = type: in vivo
Pyricularia oryzae = type: in vivo; details: Pyricularia oryzae on rice cv. Sasanishiki; 0.02% active substance, spray
Erysiphe graminis = assay: Assay B-6: Effect against Erysiphe graminis on barley (powdery mildew); residual protective / systemic activity; type: in vivo; details: 0.02% active substance spray (residual) or 0.002% soil (systemic), variant not stated
Protocol: Assay B-6: Effect Against Erysiphe graminis on Barley (Powdery Mildew on Barley) a) Residual Protective Activity […] The infected plants are placed in a greenhouse at 22°. 12 days after infection, the fungal attack is evaluated. b) Systemic Activity […] […] 48 hours later, the plants are dusted with conidia of the fungus. The infected plants are placed in a greenhouse at 22° C. 12 days after infection, the disease incidence is evaluated.

Botrytis cinerea [3] = assay: Assay B-7: Botrytis cinerea/grape (Botrytis on grapes); type: in vivo; details: Botrytis cinerea on grape seedlings cv. Gutedel; 0.02% active substance, spray
Protocol: Assay B-7: Botrytis cinerea/Grape (Botrytis on Grapes) 5 week old grape seedlings cv. Gutedel are treated with the formulated testcompound (0.02% active substance) in a spray chamber. Two days after application grape plants are inoculated by spraying a spore suspension (1×10^6 conidia/ml) on the test plants. After an incubation period of 4 days at 21° C. and 95% r. h. in a greenhouse the disease incidence is assessed.

Venturia inaegualis = assay: Assay B-5: Residual protective activity against Venturia inaegualis on apples (scab on apple); type: in vivo; details: Venturia inaegualis on apple seedlings cv. McIntosh; 0.02% active substance, spray
Protocol: Assay B-5: Residual Protective Activity Against Venturia inaegualis on Apples (Scab on Apple) 4 week old apple seedlings cv. McIntosh are treated with the formulated testcompound (0.02% active substance) in a spray chamber. One day after application apple plants are inoculated by spraying a spore suspension (4×10^5 conidia/ml) on the test plants. After an incubation period of 4 days at 21° C. and 95% r. h. the plants are placed for 4 days at 21° C. and 60% r. h. in a greenhouse. After another 4 day incubation period at 21° C. and 95% r. h. the disease incidence is assessed.

[4] = Fusarium culmorum, wheat seeds cv. Orestis in pouch, 0.002% active substance

| SMILES | B8 activity (Botrytis cinerea [1]) | melting point [°C] | pest or weed control at 0.02 % strength (Septoria nodorum; Parastagonospora nodorum, 264 h, read-out: B12 activity) [%] | pest or weed control at 0.02 % strength ([2]; 96 h, read-out: B10 activity) [%] | B11 activity (Fusarium culmorum; [4]) | B9 activity (Pyricularia oryzae) | B12 activity (Septoria nodorum) | B11 activity (Fusarium culmorum; in vivo) | B6 activity (Erysiphe graminis) | B10 activity [2] | B7 activity (Botrytis cinerea [3]) | B5 activity (Venturia inaegualis) |
| --- | --- | --- | --- | --- | --- | --- | --- | --- | --- | --- | --- | --- |
| CC(C)Nc1cc(-c2ccnc(Nc3cccc(Cl)c3)n2)ccn1 [Compound 68] | + (the activity observed in the corresponding test system is 70% or more) | 184 to 185 | > 70 | > 70 | + (the activity observed in the corresponding test system is 70% or more) |  |  |  |  |  |  |  |
| CCC(COC)Nc1cc(-c2ccnc(Nc3cccc(Cl)c3)n2)ccn1 (stereo not drawn) [Compound 4] | + (the activity observed in the corresponding test system is 70% or more) |  |  |  |  | + (the activity observed in the corresponding test system is 70% or more) | + (the activity observed in the corresponding test system is 70% or more) | + (key: +: the activity observed in the corresponding test system is 70% or more) | + (the activity observed in the corresponding test system is 70% or more) |  |  |  |
| Clc1cccc(Nc2nccc(-c3ccnc(NC4CCOCC4)c3)n2)c1 [Compound 83] | + (the activity observed in the corresponding test system is 70% or more) |  |  |  |  |  | + (the activity observed in the corresponding test system is 70% or more) | + (key: +: the activity observed in the corresponding test system is 70% or more) |  | + (the activity observed in the corresponding test system is 70% or more) |  |  |
| CCC(CO)Nc1cc(-c2ccnc(Nc3cccc(Cl)c3)n2)ccn1 (stereo not drawn) [Compound 31] | + (the activity observed in the corresponding test system is 70% or more) |  |  |  |  |  |  | + (key: +: the activity observed in the corresponding test system is 70% or more) |  | + (the activity observed in the corresponding test system is 70% or more) | + (the activity observed in the corresponding test system is 70% or more) | + (the activity observed in the corresponding test system is 70% or more) |
| COCCNc1cc(-c2ccnc(Nc3cccc(Cl)c3)n2)ccn1 [Compound 34] | + (the activity observed in the corresponding test system is 70% or more) |  |  |  |  |  | + (the activity observed in the corresponding test system is 70% or more) | + (key: +: the activity observed in the corresponding test system is 70% or more) |  | + (the activity observed in the corresponding test system is 70% or more) | + (the activity observed in the corresponding test system is 70% or more) |  |
| CC(=Nc1cc(-c2ccnc(Nc3cccc(Cl)c3)n2)ccn1)N(C)C [Compound 66] | + (the activity observed in the corresponding test system is 70% or more) |  |  |  |  | + (the activity observed in the corresponding test system is 70% or more) | + (the activity observed in the corresponding test system is 70% or more) | + (key: +: the activity observed in the corresponding test system is 70% or more) |  | + (the activity observed in the corresponding test system is 70% or more) | + (the activity observed in the corresponding test system is 70% or more) | + (the activity observed in the corresponding test system is 70% or more) |
| CC(=O)Nc1cc(-c2ccnc(Nc3cccc(Cl)c3)n2)ccn1 [Compound 61] |  | 245 to 247 |  |  | + (the activity observed in the corresponding test system is 70% or more) |  |  |  |  |  |  |  |
